Publication PMC8284453 (Antimicrobial Agents and Chemotherapy, 2021)
Values after ≈ are worked out from the molar mass of the structure shown. Values joined by “and” are separate entries in the source; they are usually repeats but may differ in a detail not shown here. Identical values can stand only once. Like-named read-outs stand apart in the source and are kept apart here.

What was measured:
[1] = test system: Enterobacterales expressing class A carbapenemases (KPC); test: organism not typed; format: cell-based, K. pneumoniae, E. coli, E. cloacae, Klebsiella oxytoca
[2] = test system: E. coli ESBL4 (CTX-M-15); test: Broth microdilution MIC; format: cell-based; settings: Escherichia coli
[3] = test system: isogenic strains of E. coli expressing Ambler class A, B, C, and D enzymes; test: microbe, parasite or virus in culture; format: cell-based, Escherichia coli; settings: for Fold increase in MIC compared to vector control: inhibitor fixed at 4 μg/ml
[4] = test system: Enterobacterales expressing class C cephalosporinases
[5] = test system: Enterobacterales expressing class D oxacillinases (OXA-48/48-like); test: organism not typed; format: cell-based, E. coli, K. pneumoniae
[6] = test system: Enterobacterales expressing class A ESBLs; test: organism not typed; format: cell-based, E. coli, K. pneumoniae
[7] = test system: K. pneumoniae ATCC BAA-1705 (KPC-2); test: 24-h time-kill assay; format: cell-based; settings: Klebsiella pneumoniae, ATCCBAA1705; lowest concentration with ≥3-log10 CFU/ml reduction at 24 h; read-out: MBC
In short: (§1)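 Bacteria at 5 × 10^5 CFU/ml in CAMHB, incubated at 37°C with shaking at 200 rpm. Viable counts determined at 0, 2, 4, 6, 8 and 24 h by 0.5 log10 serial dilution with overnight regrowth; quantification limit 2 log10 CFU/ml.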

[8] = test system: E. coli ESBL4 (CTX-M-15); test: 24-h time-kill assay; format: cell-based
In short: as §1

[9] = test system: K. pneumoniae 752286 (OXA-48); test: 24-h time-kill assay; format: cell-based; settings: Klebsiella pneumoniae; lowest concentration with ≥3-log10 CFU/ml reduction at 24 h; read-out: MBC
In short: as §1

[10] = test system: E. cloacae ECL01 (TEM-72, ACT-1, P99AmpC); test: 24-h time-kill assay; format: cell-based; settings: Enterobacter cloacae; lowest concentration with ≥3-log10 CFU/ml reduction at 24 h; read-out: MBC
In short: as §1

[11] = test system: K. pneumoniae 752286 (OXA-48); test: Broth microdilution MIC; format: cell-based; settings: Klebsiella pneumoniae
[12] = test system: Enterobacterales expressing class C cephalosporinases; test: organism not typed
[13] = test system: E. cloacae ECL01 (TEM-72, ACT-1, P99AmpC); test: Broth microdilution MIC; format: cell-based; settings: Enterobacter cloacae
[14] = test system: K. pneumoniae ATCC BAA-1705 (KPC-2); test: Broth microdilution MIC; format: cell-based; settings: Klebsiella pneumoniae, ATCCBAA1705
[15] = 25 isolates, BLI fixed at 4 μg/ml, AMC 2:1

## C[C@@H](O)[C@H]1C(=O)N2C(C(=O)O)=C(SC3CN(C4=NCCS4)C3)[C@H](C)[C@H]12 [Tebipenem]
[1]
  MIC50: ≥ 64 µg/mL
  MIC90: ≥ 64 µg/mL
[1]; [15]
  MIC50: ≥64 µg/mL
  MIC90: ≥64 µg/mL
[1]; E. cloacae 847426 (KPC)
  MIC: ≥ 64 µg/mL
[1]; E. cloacae 847429 (KPC)
  MIC: ≥ 64 µg/mL
[1]; E. cloacae OIMGH49 (p99 AmpC, ACT-2, KPC-2, TEM-1)
  MIC: 32 µg/mL (≈ 83.4 µM)
[1]; E. coli 786978 (KPC)
  MIC: ≥ 64 µg/mL
[1]; K. oxytoca 847537 (KPC)
  MIC: ≥ 64 µg/mL
[1]; K. oxytoca 847539 (KPC)
  MIC: 8 µg/mL (≈ 20.9 µM)
[1]; K. pneumoniae 155140 (AmpC, KPC-2, SHV-12, TEM-1)
  MIC: ≥ 64 µg/mL
[1]; K. pneumoniae 845661 (KPC)
  MIC: ≥ 64 µg/mL
[1]; K. pneumoniae 845662 (KPC)
  MIC: ≥ 64 µg/mL
[1]; K. pneumoniae 845665 (KPC)
  MIC: ≥ 64 µg/mL
[1]; K. pneumoniae 845667 (KPC)
  MIC: ≥ 64 µg/mL
[1]; K. pneumoniae 845670 (KPC)
  MIC: 32 µg/mL (≈ 83.4 µM)
[1]; K. pneumoniae 845904 (KPC)
  MIC: ≥ 64 µg/mL
[1]; K. pneumoniae 847204 (KPC)
  MIC: ≥ 64 µg/mL
[1]; K. pneumoniae 847375 (KPC)
  MIC: ≥ 64 µg/mL
[1]; K. pneumoniae 847378 (KPC)
  MIC: ≥ 64 µg/mL
[1]; K. pneumoniae 847379 (KPC)
  MIC: 16 µg/mL (≈ 41.7 µM)
[1]; K. pneumoniae 847383 (KPC)
  MIC: ≥ 64 µg/mL
[1]; K. pneumoniae 847384 (KPC)
  MIC: ≥ 64 µg/mL
[1]; K. pneumoniae 847387 (KPC)
  MIC: ≥ 64 µg/mL
[1]; K. pneumoniae 847747 (KPC)
  MIC: ≥ 64 µg/mL
[1]; K. pneumoniae 848832 (KPC)
  MIC: ≥ 64 µg/mL
[1]; K. pneumoniae 848844 (KPC)
  MIC: ≥ 64 µg/mL
[1]; K. pneumoniae 897067 (KPC)
  MIC: 32 µg/mL (≈ 83.4 µM)
[1]; K. pneumoniae UMM (KPC-2, SHV-5, TEM-1)
  MIC: 32 µg/mL (≈ 83.4 µM)
[2]
  MIC: ≤ 0.06 µg/mL
[3]; E. coli expressing ACT-17 (class C)
  Fold increase in MIC compared to vector control: 4
[3]; E. coli expressing CMY-2 (class C)
  Fold increase in MIC compared to vector control: 4
[3]; E. coli expressing CMY-42 (class C)
  Fold increase in MIC compared to vector control: 16
[3]; E. coli expressing CTX-M-15 (class A)
  Fold increase in MIC compared to vector control: 4
[3]; E. coli expressing GES-5 (class A)
  Fold increase in MIC compared to vector control: 512
[3]; E. coli expressing KPC-3 D179Y (class A)
  Fold increase in MIC compared to vector control: 8
[3]; E. coli expressing NDM-1 (class B)
  Fold increase in MIC compared to vector control: 2,048
[3]; E. coli expressing OXA-23 (class D)
  Fold increase in MIC compared to vector control: 128
[3]; E. coli expressing OXA-48 (class D)
  Fold increase in MIC compared to vector control: 256
[3]; E. coli expressing OXA-163 (class D)
  Fold increase in MIC compared to vector control: 32
[3]; E. coli expressing OXA-181 (class D)
  Fold increase in MIC compared to vector control: 256
[3]; E. coli expressing P99/AmpC (class C)
  Fold increase in MIC compared to vector control: 8
[3]; E. coli expressing PER-1 (class A)
  Fold increase in MIC compared to vector control: 4
[3]; E. coli expressing SHV-5 (class A)
  Fold increase in MIC compared to vector control: 4
[3]; E. coli expressing SHV-12 (class A)
  Fold increase in MIC compared to vector control: 4
[3]; E. coli expressing TEM-10 (class A), modal MIC, 4 replicates
  Fold increase in MIC compared to vector control: 4
[3]; E. coli expressing VEB-9 (class A)
  Fold increase in MIC compared to vector control: 2
[3]; Escherichia coli, read-out: Vector control MIC
  MIC: 0.016 µg/mL (≈ 0.0417 µM)
[4]; C. freundii 134390 (AmpC, TEM-1)
  MIC: 0.03 µg/mL (≈ 0.0782 µM)
[4]; E. aerogenes 110099 (AmpC, SHV-12)
  MIC: 0.12 µg/mL (≈ 0.313 µM)
[4]; E. aerogenes 111707 (AmpC, TEM-1)
  MIC: 0.03 µg/mL (≈ 0.0782 µM)
[4]; E. aerogenes 111902 (AmpC, TEM-1)
  MIC: 0.12 µg/mL (≈ 0.313 µM)
[4]; E. coli 128 (AmpC, SHV-12, TEM-1, Toho-2)
  MIC: ≤ 0. 016 μg/ml
[4]; E. coli 3102 (AmpC, CTX-M-15, TEM-1)
  MIC: ≤ 0. 016 μg/ml
[4]; E. coli CH1 (AmpC, CTX-M-15, SHV-1, SHV-5, TEM-1)
  MIC: 0.06 µg/mL (≈ 0.156 µM)
[4]; E. coli EC469 (AmpC, SHV-12, TEM-1)
  MIC: ≤ 0. 016 μg/ml
[4]; E. coli J53 (AmpC, SHV-5, TEM-1)
  MIC: ≤ 0. 016 μg/ml
[4]; E. coli SI-P026TC (CMY-2, TEM-1)
  MIC: 0.12 µg/mL (≈ 0.313 µM)
[4]; E. coli SI-PO26 (AmpC, CMY-2, TEM-1)
  MIC: 0.03 µg/mL (≈ 0.0782 µM)
[4]; K. pneumoniae 129032 (MOX-2, SHV-12, TEM-1)
  MIC: 0.03 µg/mL (≈ 0.0782 µM)
[4]; K. pneumoniae 178279 (AmpC, SHV-12, TEM-1)
  MIC: 0.03 µg/mL (≈ 0.0782 µM)
[4]; K. pneumoniae 212027 (AmpC, FOX-5, TEM-1)
  MIC: 0.03 µg/mL (≈ 0.0782 µM)
[4]; K. pneumoniae 217917 (CMY-2, TEM-1)
  MIC: 0.06 µg/mL (≈ 0.156 µM)
[4]; K. pneumoniae 301313 (AmpC, SHV-12, TEM-1)
  MIC: 0.06 µg/mL (≈ 0.156 µM)
[4]; K. pneumoniae 398845 (CMY-2, SHV-12, TEM-1)
  MIC: 0.03 µg/mL (≈ 0.0782 µM)
[4]; K. pneumoniae SI-F100 (CMY-2, SHV-5, TEM-1)
  MIC: ≤ 0. 016 μg/ml
[4]; P. mirabilis SI-F014 (AmpC, TEM-72)
  MIC: 2 µg/mL (≈ 5.22 µM)
[4]; S. marcescens 132253 (AmpC, CTX-M-3, OXA-1, SHV-12, TEM-1)
  MIC: 0.5 µg/mL (≈ 1.3 µM)
[4]; S. marcescens 134434 (AmpC, SHV-12, TEM-1)
  MIC: 0.5 µg/mL (≈ 1.3 µM)
[4]; S. marcescens 142397 (AmpC, SHV-7, TEM-1)
  MIC: 0.25 µg/mL (≈ 0.652 µM)
[4]; S. marcescens 156212 (AmpC, SHV-12, TEM-1)
  MIC: 0.25 µg/mL (≈ 0.652 µM)
[4]; S. marcescens 192478 (AmpC, SHV-12, TEM-1)
  MIC: 0.12 µg/mL (≈ 0.313 µM)
[4]; S. marcescens 218068 (AmpC, SHV-7, TEM-1)
  MIC: 0.25 µg/mL (≈ 0.652 µM)
[5]; [15]
  MIC50: 4 µg/mL and 8 µg/mL
  MIC90: 16 µg/mL and 32 µg/mL
[5]; E. coli 664507 (OXA-48)
  MIC: 4 µg/mL (≈ 10.4 µM)
[5]; E. coli 664516 (OXA-48)
  MIC: 8 µg/mL (≈ 20.9 µM)
[5]; E. coli 664520 (OXA-48)
  MIC: 4 µg/mL (≈ 10.4 µM)
[5]; E. coli 664522 (OXA-48)
  MIC: 8 µg/mL (≈ 20.9 µM)
[5]; E. coli 664523 (OXA-48)
  MIC: 4 µg/mL (≈ 10.4 µM)
[5]; E. coli 664524 (OXA-48)
  MIC: 4 µg/mL (≈ 10.4 µM)
[5]; E. coli 664525 (OXA-48)
  MIC: 8 µg/mL (≈ 20.9 µM)
[5]; E. coli 664526 (OXA-48)
  MIC: 4 µg/mL (≈ 10.4 µM)
[5]; E. coli 664528 (OXA-48)
  MIC: 4 µg/mL (≈ 10.4 µM)
[5]; E. coli 787112 (OXA-48)
  MIC: 8 µg/mL (≈ 20.9 µM)
[5]; E. coli SI-422 (OXA-48)
  MIC: 1 µg/mL (≈ 2.61 µM)
[5]; E. coli VER (OXA-48)
  MIC: 1 µg/mL (≈ 2.61 µM)
[5]; K. pneumoniae 6299 (OXA-163)
  MIC: 4 µg/mL (≈ 10.4 µM)
[5]; K. pneumoniae 515746 (OXA-48), first line
  MIC: 1 µg/mL (≈ 2.61 µM)
[5]; K. pneumoniae 515746 (OXA-48), second line
  MIC: 0.5 µg/mL (≈ 1.3 µM)
[5]; K. pneumoniae 664438 (OXA-48)
  MIC: 8 µg/mL (≈ 20.9 µM)
[5]; K. pneumoniae 664439 (OXA-48)
  MIC: 4 µg/mL (≈ 10.4 µM)
[5]; K. pneumoniae 664509 (OXA-48)
  MIC: ≥ 64 µg/mL
[5]; K. pneumoniae 664518 (OXA-48)
  MIC: 4 µg/mL (≈ 10.4 µM)
[5]; K. pneumoniae 722870 (OXA-48)
  MIC: 1 µg/mL (≈ 2.61 µM)
[5]; K. pneumoniae BAH (OXA-204)
  MIC: 0.5 µg/mL (≈ 1.3 µM)
[5]; K. pneumoniae DEL (OXA-232)
  MIC: ≥ 64 µg/mL
[5]; K. pneumoniae DOV (OXA-48)
  MIC: 0.5 µg/mL (≈ 1.3 µM)
[5]; K. pneumoniae KIRK (OXA-162)
  MIC: 1 µg/mL (≈ 2.61 µM)
[5]; K. pneumoniae SI-C17 (OXA-48)
  MIC: 16 µg/mL (≈ 41.7 µM)
[6]
  MIC50: 0.03 µg/mL (≈ 0.0782 µM)
  MIC90: 0.06 µg/mL (≈ 0.156 µM)
[6]; [15]
  MIC range: ≤0.016 to 0.12 µg/mL
[7]
  MBC: 32 µg/mL (≈ 83.4 µM)
[8]; Escherichia coli, lowest concentration with ≥3-log10 CFU/ml reduction at 24 h, read-out: MBC
  MBC: 0.06 µg/mL (≈ 0.156 µM)
[8]; Fig. 3a, CTB 2 μg/ml with BLI at 4 μg/ml, CTB alone 8 μg/ml, amoxicillin 8/clavulanic acid 4 μg/ml, penems 2 μg/ml
  outcome of 24-h time-kill assay: bactericidal activity
[9]
  MBC: > 32 µg/mL
[10]
  MBC: 0.25 µg/mL (≈ 0.652 µM)
[11]
  MIC: 16 µg/mL (≈ 41.7 µM)
[12]
  MIC50: 0.06 µg/mL (≈ 0.156 µM)
  MIC90: 0.5 µg/mL (≈ 1.3 µM)
[13]
  MIC: 0.25 µg/mL (≈ 0.652 µM)
[14]
  MIC: 32 µg/mL (≈ 83.4 µM)
